Data on one molecule can be found in patent US20250352511A1 (CHINOOK THERAPEUTICS, INC., priority 2022, published 2025).

One series deals with patients with FSGS. Kind of series: Phase 2 open-label basket study, FSGS cohort: urine protein to creatinine ratio (UPCR). To be noted: 0.75 mg atrasentan daily; week 24 vs week 0; twenty patients with FSGS. Type of series: in vivo, human. From the text:
Subjects will be enrolled in disease specific cohorts as follows: • Cohort 1: IgAN (with UPCR 0.5 to <1.[…]) • Cohort 2: FSGS • Cohort 2b: FSGS (dose escalation) • Cohort 3: Alport syndrome • Cohort 4: DKD • Cohort 5: FSGS (higher dose cohort) Subjects in Cohorts 2 and 5 (FSGS) include the following characteristics: • Biopsy-confirmed FSGS or documentation of a genetic mutation in a podocyte protein associated with FSGS. […] Urine Protein to Creatinine Ratio (UPCR) will be assessed. Assessment of proteinuria plays an important role in the diagnosis of kidney disease and in monitoring disease activity (Zhao, 2016). UPCR is widely used for proteinuria evaluation in clinical practice. UPCR will be measured using FMV urine sample and a 24-hour urine collection at timepoints. […] Twenty patients with FSGS were enrolled in the study if the inclusion and exclusion criteria of Example 1 were met.

A further series deals with subjects with DKD. The note with it: RADAR Phase 2b, cited from earlier work.
The conditions of series [1]: 0.75 mg dose; DKD; PK-PD exposure-response model; cited from earlier work.
Series [2] has as its system patients with diabetic kidney disease. The note with it: cited from earlier work.
[3] abbreviates: daily dose 0.75 mg, dose-range finding studies and exposure-response analyses.

Where two headings read alike, the source gives them in different places.

For `CCCCN(CCCC)C(=O)CN1C[C@H](c2ccc3c(c2)OCO3)[C@@H](C(=O)O)[C@@H]1c1ccc(OC)cc1` [Atrasentan, (2R,3R,4S)-4-(1,3-benzodioxol-5-yl)-1-[2-(dibutylamino)-2-oxoethyl]-2-(4-methoxyphenyl)pyrrolidine-3-carboxylic acid], in the series on patients with FSGS, the “reduction in UPCR compared the baseline measurement” value was 38.3%. In addition, in the series with subjects with DKD (0.75 mg dose), the “fluid retention (body weight, edema incidence, treatment discontinuations)” value is “only minimal evidence for fluid retention” and the proteinuria reduction is 35%. In the series with subjects with DKD (1.25 mg dose), the “fluid retention related adverse events” value is “greater fluid retention related adverse events including treatment discontinuation” and the proteinuria reduction is on record as 38%. Also, the Ctrough range in series [1] was 1.2 to 2.2 ng/mL. In series [2] (setting [3]), the UACR entry was “marked reduction” and the fluid retention result is given as “only modest fluid retention”. The “risk of renal events (doubling of serum creatinine or end-stage kidney disease)” value in series [2] (patients with diabetic kidney disease) was “significantly reducing the risk of renal events”. The “most common adverse events associated with treatment” value in series [2] (subjects with DKD) is “fluid retention, hemodilution, and vasodilation”.
